Here are results for one molecule from US7572775B2, “Method of inhibiting intestinal polyps” (Japan as Represented by Director General of Agency of …, priority 2004, dated 2009).

This experiment deals with Min mice of a familial adenomatous polyposis model (Apc gene deficient mice, C57BL/6-ApcMin/+). The experiment can be described thus: Intestinal polyp suppression test (intestinal polyp assay) in Min mice. Format: in vivo, mouse. Particulars: for Number of polyps/mouse, colon / Number of polyps/mouse, small intestine, central / Number of polyps/mouse, small intestine, distal / Number of polyps/mouse, small intestine, proximal / Number of polyps/mouse, total / Number of polyps, percentage of the result for the 0 dose (control) group, small intestine, central / Number of polyps, percentage of the result for the 0 dose (control) group, small intestine, distal / Number of polyps, percentage of the result for the 0 dose (control) group, small intestine, proximal / Number of polyps, percentage of the result for the 0 dose (control) group, colon / Number of polyps, percentage of the result for the 0 dose (control) group, total: male Min mice; for Number of polyps/mouse, colon / Number of polyps/mouse, small intestine, central / Number of polyps/mouse, small intestine, distal / Number of polyps/mouse, small intestine, proximal / Number of polyps/mouse, total: average ± SE; for Number of polyps, percentage of the result for the 0 dose (control) group, small intestine, proximal: p < 0.01 vs control. How it is done: The experimental animals were male Min mice of a familial adenomatous polyposis model (Apc (Adenomatous polyposis coli) gene deficient mice, C57BL/6-ApcMin/+, Jackson Laboratory, Bar Harbor, Me.). These mice were purchased at age 5 weeks, and acclimatized for 2 weeks to laboratory conditions (24±2° C., humidity 55%, 12 hours light/12 hours dark cycle, free access to feed and water) before being used in the tests. The feed was “AIN-76A” basic feed (Clea Japan).
Wild-type […] mice (from the same source) were subjected to the same test as a control.
Compound A was used as the experimental medicine. The compound was mixed to a specific concentration (400 ppm or 800 ppm) with the AIN-76A basic feed for use in the tests.
Feed comprising a specific amount of the experimental medicine mixed to a specific concentration with basic feed (AIN-76A) was administered to the experimental group mice (2 groups of 10 mice) and comparison group mice (1 group of 10 mice) for 13 weeks from age 7 weeks to age 20 weeks (natural feeding). When death was confirmed during the experiment, however, administration was naturally discontinued.
A group of 10 mice receiving basic feed (AIN-76A) without the experimental medicine added for the same length of time was set up as a control group (experimental drug non-administration group).
13 weeks after the start of the experiment the mice in all groups (excluding those which had died) were euthanized, and an intestinal polyp assay was performed as follows.
The intestines were removed from the mice in all groups, placed in phosphate buffer containing 10% formalin, and then separated into four parts: (1) the colon, (2) the proximal part of the small intestine (about 4 cm long beginning at the pylorus), (3) the central part of the small intestine (the center of the remaining half of the small intestine) and (4) the distal part of the small intestine (the distal part of the remaining half of the small intestine). Each part was opened longitudinally, and fixed flat between sheets of filter paper in phosphate buffer containing 10% formalin.
The number and size of polyps and their distribution in the intestines were counted, measured and evaluated under a stereoscopic microscope. These methods are described in the literature reference(Watanabe, K. et al., “Role of the prostaglandin E receptor subtype EP1 in colon carcinogenesis”, Cancer Res., 59, 5093-6 (1999)).

The mark [1] stands for this setting: 400 ppm in AIN-76A feed for 13 weeks.
[2] abbreviates: 400 ppm in feed for 13 weeks, p < 0.05 vs control.
Setting [3] is: 800 ppm in AIN-76A feed for 13 weeks.
Setting [4] is: 800 ppm in feed for 13 weeks, p < 0.05 vs control.

Marks after values point to notes of the source that are not given here.

On to `CCOP(=O)(Cc1ccc(C(=O)Nc2ccc(Br)cc2C#N)cc1)OCC` [Compound A, 4-diethoxyphosphinoylmethyl-N-(4-bromo-2-cyanophenyl)benzamide], for which the “Number of polyps by polyp diameter (FIG. 1)” value (400 ppm and 800 ppm in feed, Min mice, polyp diameter (mm)) is “reduction in the number of polyps of all sizes”. Moreover, under setting [1], the “Number of polyps/mouse, colon” value was 0.4 ± 0.2 polyps/mouse; the “Number of polyps/mouse, small intestine, central” value is 16.1 ± 3.8 polyps/mouse; the “Number of polyps/mouse, small intestine, distal” value is given as 33.0 ± 6.5 polyps/mouse; the “Number of polyps/mouse, small intestine, proximal” value was 8.5 ± 1.4 polyps/mouse. Besides, the “Number of polyps/mouse, total” value under setting [1] is 58.0 ± 10.8 polyps/mouse. For the setting “400 ppm in feed for 13 weeks”, the “Number of polyps, percentage of the result for the 0 dose (control) group, small intestine, central” value is recorded as “(43) percentage”; the “Number of polyps, percentage of the result for the 0 dose (control) group, small intestine, distal” value is given as “(55) percentage”; the “Number of polyps, percentage of the result for the 0 dose (control) group, small intestine, proximal” value is reported as “(37)^d percentage”. In addition, under setting [2], the “Number of polyps, percentage of the result for the 0 dose (control) group, colon” value is recorded as “(38)^c percentage” and the “Number of polyps, percentage of the result for the 0 dose (control) group, total” value is listed as “(48)^c percentage”. For the same molecule, for the setting “400 ppm in feed, group of 10 Min mice, 13 weeks, 3 died in the control group”, the “Mice that died during the experiment (death due to bleeding from polyps)” value is listed as 2 mice. Further, under setting [3], the “Number of polyps/mouse, colon” value is given as 0.3 ± 0.2 polyps/mouse; the “Number of polyps/mouse, small intestine, central” value worked out at 13.8 ± 2.6 polyps/mouse; the “Number of polyps/mouse, small intestine, distal” value came out at 30.5 ± 5.0 polyps/mouse; the “Number of polyps/mouse, small intestine, proximal” value is on record as 5.9 ± 1.0 polyps/mouse. Besides, the “Number of polyps/mouse, total” value under setting [3] is 50.5 ± 7.8 polyps/mouse. Where the note is “800 ppm in feed for 13 weeks”, the “Number of polyps, percentage of the result for the 0 dose (control) group, small intestine, proximal” value is on record as “(26)^d percentage”. Besides, under setting [4], the “Number of polyps, percentage of the result for the 0 dose (control) group, colon” value was “(30)^c percentage”; the “Number of polyps, percentage of the result for the 0 dose (control) group, small intestine, central” value is on record as “(37)^c percentage”; the “Number of polyps, percentage of the result for the 0 dose (control) group, small intestine, distal” value is “(51)^c percentage”; the “Number of polyps, percentage of the result for the 0 dose (control) group, total” value is given as “(42)^c percentage”. Besides, the Polyp suppression effect result (dosage of either 400 ppm or 800 ppm in feed, Min mice) is recorded as “excellent polyp suppression effect”.
